Reference: US11311523B2, “Pyridinone compound and use thereof” (KYUSHU UNIVERSITY, NATIONAL UNIVERSITY CORPORATION, priority 2015, dated 2022)

System: human colon cancer cell line (DLD-1)
Experiment: cellular invasion inhibition assay (Matrigel chamber)
Type: cell-based
Details: FIG. 12(D)
Protocol: Pharmacological Test 2 (Cellular Invasion Inhibition Assay)
Three hundred microliters of a suspension of a mouse lung carcinoma cell line (3LL), a human fibrosarcoma cell line (HT-1080), or a human colon cancer cell line (DLD-1) in DMEM (serum free) was placed in the upper chamber with Matrigel (BD Biosciences) equilibrated with DMEM (serum free) for 120 minutes, while 500 μL of DMEM (with 10% FCS) was placed in the lower chamber. Each pyridinone compound or CPYPP dissolved at a predetermined concentration in DMSO was added to the culture media in both the upper and lower chambers. As a control, DMSO alone was added to the media. In all of the experiments, the final DMSO concentration was adjusted to 0.2%.
After the resulting products were cultured at 37° C. under 5% CO2 for 22 hours, the chambers were removed, and the culture media were removed. […] After staining, the inserts were cut out with a blade to prepare slides, and the cells were counted under an optical microscope.
The results were evaluated based on percent cell invasion (%: Invasion) and percent inhibition (%: inhibition). The percent cell invasion was obtained by converting the number of invading cells under each condition to percentage, taking the number of invading cells in the control, to which DMSO was added alone, as 100%; and the percent inhibition was obtained by deducting the percent cell invasion from 100.

O=C(Cn1cc(S(=O)(=O)N2CCCC2)ccc1=O)c1ccc(-c2cccc(C(F)(F)F)c2)cc1 [TS-45, 1-(2-oxo-2-(3′-(trifluoromethyl)-[1,1′-biphenyl]-4-yl)ethyl)-5-(pyrrolidin-1-ylsulfonyl)pyridin-2(1H)-one]
inhibition of DLD-1 cell invasion: inhibits DLD-1 cell invasion
